Data from patent publication US20250051355A1, “COMPOUNDS, COMPOSITIONS, AND METHODS” (ACONCAGUA BIO, INC., priority 2023, published 2025).

Key:
[1] = target: human calcitonin receptor (CTR) and RAMP3 (AMY3) (Homo sapiens, UniProt O60896+P30988); assay: Amylin Receptor cAMP Assay II; assay type: cell-based; settings: COS-7/AMY3 cells, cAMP dynamic 2 kit, read-out: Amylin Receptor cAMP Stimulation Activity: EC50
Description: Amylin Receptor cAMPAssay II
AMYRs are heterodimers of the class B calcitonin (CT) G-protein-coupled receptor (CTR) and receptor activity-modifying proteins (RAMPs). All three RAMPs can interact with the CTR and form AMY1, AMY2, AMY3 with RAMP1, RAMP2 and RAMP3, respectively. Like other class B1 GPCRs, the CT receptor family is canonically coupled to Gs-mediated cAMP production, and measurement of cAMP accumulation has been the primary assay used to determine peptide selectivity and potency.
(§1) To optimize functional activity directed toward Gas coupling, COS-7 cells were stably transfected with human calcitonin receptor (CTR) and RAMP3, simultaneously. 100×concentration of compound working solutions were prepared with 4-fold serial dilution in 384-well Echo LDV plate (Labcyte, Cat #LP-0200-BC). 200 nL/well 100×concentration of compound working solutions were moved to 384-well white microplate (Perkin Elmer, Cat #6007680) using Labcyte ECHO550. […] cells/mL COS-7/AMY3 cell suspensions prepared with assay buffer [HBSS containing 20 mM HEPES (Gibco, Cat #15630-080), 0.5 mM IBMX (Sigma, Cat #15879) and 0.1% Casein (Sigma, Cat #C4765)], 20 μL cell suspensions were added to each well of previous generated assay plate which already contains 200 nL compound at 100×concentration using ThermoFisher Multidrop Combi (2000 cells/well). Seal the plate and incubate at 37° C. with 5% CO2 for 30 min.
(§2) After incubation, the cAMP assay signal was generated using cAMP dynamic 2 kit (Revvity, Cat #62AM4PEC). 10 μL cAMP-d2 working solution was added to each well, followed by 10 μL Anti-cAMP antibody-cryptate working solution which was added to each well using CERTUS FLEX LIQUID DISPENSER The samples were then incubated at room temperature for 1 hour protected from light. the fluorescence was read at 665 and 615 nm with Reader PerkinElmer EnVision 2105.

[2] = target: T1, human calcitonin receptor (CTR) (Homo sapiens, UniProt P30988); assay: Calcitonin receptor (CTR) cAMP Assay; assay type: cell-based; settings: COS7-human CTR Clone #2 cells, cAMP dynamic 2 kit; read-out: Calcitonin Receptor cAMP Stimulation Activity: EC50
T1 construct: expressed in transfected cells; host or cells: COS-7 (COS7-human CTR Clone #2)
T1 sequence (P30988 25-474): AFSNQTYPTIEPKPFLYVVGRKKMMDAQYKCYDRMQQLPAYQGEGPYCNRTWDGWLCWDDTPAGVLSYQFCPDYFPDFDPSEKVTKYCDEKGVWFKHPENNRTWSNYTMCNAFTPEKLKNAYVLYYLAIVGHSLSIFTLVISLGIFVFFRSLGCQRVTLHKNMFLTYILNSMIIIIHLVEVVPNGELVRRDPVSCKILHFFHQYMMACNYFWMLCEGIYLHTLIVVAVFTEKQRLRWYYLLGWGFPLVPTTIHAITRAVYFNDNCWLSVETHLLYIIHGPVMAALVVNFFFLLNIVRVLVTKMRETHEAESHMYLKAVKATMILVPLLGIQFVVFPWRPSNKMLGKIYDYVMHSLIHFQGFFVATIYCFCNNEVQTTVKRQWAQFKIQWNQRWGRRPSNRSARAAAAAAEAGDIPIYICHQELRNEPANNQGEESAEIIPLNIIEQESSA
Description: Calcitonin receptor (CTR) cAMPAssay
The calcitonin receptor (CTR) belongs to the subfamily of GPCRs known as the secretin or ‘B’ family of GPCRs. Like other class B1 GPCRs, the CT receptor family is canonically coupled to Gs-mediated cAMP production, and measurement of cAMP accumulation has been the primary assay used to determine peptide selectivity and potency.
as §1, with “to create COS7-human CTR Clone #2 stable cell line. 100× concentration” for “and RAMP3, simultaneously. 100×concentration”, “COS7-human CTR Clone #2” for “COS-7/AMY3”
as §2, with “#62AM4PEC). […] cAMP-d2 working” for “#62AM4PEC). 10 μL cAMP-d2 working”

Sequence of human calcitonin receptor (CTR) and RAMP3 (AMY3) (O60896 24-148, one chain of several): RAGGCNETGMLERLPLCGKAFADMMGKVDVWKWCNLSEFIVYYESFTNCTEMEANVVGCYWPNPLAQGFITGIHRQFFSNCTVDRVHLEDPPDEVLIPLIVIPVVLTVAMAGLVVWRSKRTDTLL

SMILES	EC50 [1]	EC50 [2]
Cc1nnc(-c2c(CCC3CCCCO3)nc3c(c2-c2ccc(C(=O)NCc4ccc(F)c(F)c4)s2)C(=O)N2CCC[C@@H]32)o1 (stereo partly drawn) [Compound 62, N-(3,4-difluorobenzyl)-5-((9aS)-3-(5-methyl-1,3,4-oxadiazol-2-yl)-5-oxo-2-(2-(tetrahydro-2H-pyran-2-yl)ethyl)-7,8,9,9a-tetrahydro-5H-pyrido[2,3-a]pyrrolizin-4-yl)thiophene-2-carboxamide]	2070 nM	129 nM
Cc1nnc(-c2c(CCC3CCOCC3)nc3c(c2-c2cc4ccnc(N[C@@H]5CCc6ncccc65)c4s2)C(=O)N2CCC[C@@H]32)o1 [Compound 64, (S)-4-(7-(((R)-6,7-dihydro-5H-cyclopenta[b]pyridin-5-yl)amino)thieno[2,3-c]pyridin-2-yl)-3-(5-methyl-1,3,4-oxadiazol-2-yl)-2-(2-(tetrahydro-2H-pyran-4-yl)ethyl)-7,8,9,9a-tetrahydro-5H-pyrido[2,3-a]pyrrolizin-5-one]	306 nM	25 nM
Cc1nnc(-c2c(CC3COc4cc(F)ccc43)nc3c(c2-c2ccc(C(=O)NCc4ccc(F)c(F)c4)s2)C(=O)N2CCC[C@@H]32)o1 (stereo partly drawn) [Compound 67, 5-[(9aS)-2-[(6-fluoro-2,3-dihydrobenzofuran-3-yl)methyl]-3-(5-methyl-1,3,4-oxadiazol-2-yl)-5-oxo-7,8,9,9a-tetrahydropyrido[2,3-a]pyrrolizin-4-yl]-N-[(3,4-difluorophenyl)methyl]thiophene-2-carboxamide]	412 nM	22 nM
Cc1nnc(-c2c(CCc3ccc(F)cc3)nc3c(c2-c2ccc(C(=O)NCc4ccc(F)c(F)c4)s2)C(=O)N2CCOC[C@@H]32)o1 [Compound 68, (R)—N-(3,4-difluorobenzyl)-5-(2-(4-fluorophenethyl)-3-(5-methyl-1,3,4-oxadiazol-2-yl)-5-oxo-7,8,10,10a-tetrahydro-5H-pyrido[2′,3′:3,4]pyrrolo[2,1-c][1,4]oxazin-4-yl)thiophene-2-carboxamide]	168 nM	3 nM
Cc1nnc(-c2c(CCC3CCOCC3)nc3c(c2-c2cc4ccnc(N[C@@H]5CCc6ncccc65)c4s2)C(=O)N[C@H]3C(C)C)o1 [Compound 76]	508 nM	71 nM
COc1cccc2c1CC[C@H]2Nc1nccc2cc(-c3c(-c4nnc(C)o4)c(CCC4CCOCC4)nc4c3S(=O)(=O)CC4C(C)C)sc12 (stereo partly drawn) [Compound 77, 3-isopropyl-7-(7-(((R)-4-methoxy-2,3-dihydro-1H-inden-1-yl)amino)thieno[2,3-c]pyridin-2-yl)-6-(5-methyl-1,3,4-oxadiazol-2-yl)-5-(2-(tetrahydro-2H-pyran-4-yl)ethyl)-2,3-dihydrothieno[3,2-b]pyridine 1,1-dioxide]	427 nM	6.4 nM
Cc1nnc(-c2c(CCC3CCOCC3)nc3c(c2-c2cc4ccnc(N[C@@H]5CCc6ncccc65)c4s2)S(=O)(=O)CC3C(C)C)o1 (stereo partly drawn) [Compound 78, 7-(7-(((R)-6,7-dihydro-5H-cyclopenta[b]pyridin-5-yl)amino)thieno[2,3-c]pyridin-2-yl)-3-isopropyl-6-(5-methyl-1,3,4-oxadiazol-2-yl)-5-(2-(tetrahydro-2H-pyran-4-yl)ethyl)-2,3-dihydrothieno[3,2-b]pyridine 1,1-dioxide]	187 nM	13 nM
Cc1nnc(-c2c(CCC3CCOCC3)nc3c(c2-c2cc4ccnc(N[C@@H]5CCc6ncccc65)c4s2)S(=O)(=O)N2CCC[C@@H]32)o1 [Compound 81, (S)-4-(7-(((R)-6,7-dihydro-5H-cyclopenta[b]pyridin-5-yl)amino)thieno[2,3-c]pyridin-2-yl)-3-(5-methyl-1,3,4-oxadiazol-2-yl)-2-(2-(tetrahydro-2H-pyran-4-yl)ethyl)-7,8,9,9a-tetrahydropyrrolo[1′,2′:2,3]isothiazolo[4,5-b]pyridine 5,5-dioxide]	325 nM	7.5 nM
COc1cccc2c1CC[C@H]2Nc1nccc2cc(-c3c(-c4nnc(C)o4)c(CCC4CCOCC4)nc4c3S(=O)(=O)N3CCC[C@@H]43)sc12 [Compound 84, [(R)-4-methoxy-1-indanyl](2-((2S)-10-(5-methyl-1,3,4-oxadiazol-2-yl)-7,7-dioxo-11-[2-(tetrahydro-2H-pyran-4-yl)ethyl]-7λ^6-thia-6,12-diazatricyclo[6.4.0.0^2,6]dodeca-1(12),8,10-trien-9-yl}-1-thia-6-aza-7-indenyl)amine]	91.6 nM	7.4 nM
COc1cccc2c1CC[C@H]2Nc1nccc2cc(-c3c4c(nc(CCc5ccc(F)cc5)c3-c3nnc[nH]3)[C@@H]3CCCN3C4=O)sc12 [Compound 85, (S)-2-(4-fluorophenethyl)-4-(7-(((R)-4-methoxy-2,3-dihydro-1H-inden-1-yl)amino)thieno[2,3-c]pyridin-2-yl)-3-(4H-1,2,4-triazol-3-yl)-7,8,9,9a-tetrahydro-5H-pyrido[2,3-a]pyrrolizin-5-one]	13 nM	0.676 nM
COc1cccc2c1CC[C@H]2Nc1nccc2cc(-c3c4c(nc(CCc5ccc(F)cc5)c3-c3nnc(N)o3)[C@@H]3CCCN3C4=O)sc12 [Compound 86, (2S)-9-(7-[(R)-4-methoxy-1-indanylamino]-1-thia-6-aza-2-indenyl}-10-(5-amino-1,3,4-oxadiazol-2-yl)-11-[2-(p-fluorophenyl)ethyl]-6,12-diazatricyclo[6.4.0.0^2,^6]dodeca-1(8),9,11-trien-7-one]	9.66 nM	0.398 nM
Cc1nnc(-c2c(CCC3CCOCC3)nc3c(c2-c2cn4c(N[C@@H]5CCc6ncccc65)cccc4n2)S(=O)(=O)CC3C(C)C)o1 (stereo partly drawn) [Compound 87, N—(R)-4-aza-1-indanyl(2-(3-isopropyl-6-(5-methyl-1,3,4-oxadiazol-2-yl)-1,1-dioxo-5-[2-(tetrahydro-2H-pyran-4-yl)ethyl]-1λ^6-thia-4-aza-7-indanyl}-1,3a-diaza-4-indenyl)amine]	> 100 nM	4380 nM
Cc1nnc(-c2c(CCC3CCOCC3)nc3c(c2-c2cn4cccc(N[C@@H]5CCc6ncccc65)c4n2)S(=O)(=O)CC3C(C)C)o1 (stereo partly drawn) [Compound 88, N—(R)-4-aza-1-indanyl(2-(3-isopropyl-6-(5-methyl-1,3,4-oxadiazol-2-yl)-1,1-dioxo-5-[2-(tetrahydro-2H-pyran-4-yl)ethyl]-1λ^6-thia-4-aza-7-indanyl}-1,3a-diaza-7-indenyl)amine]	3100 nM	1050 nM
